pIC50: −log10 of the molar value.
Legend:
[1] = target: T1, human protease activated receptor 1 (PAR1) (Homo sapiens, UniProt P25116); assay: Cellular functional in vitro test (aequorin luminescence, PAR1 test cell); format: cell-based; conditions: recombinant HEK293-derived cell line expressing aequorin; PAR1 agonist added at its EC50 5 minutes after test substance
T1 construct: the cell stably expresses the endogenous human PAR1 receptor and the endogenous purinergic receptor P2Y2; endogenous in cells; host or cells: HEK293-derived recombinant cell line constitutively expressing mitochondrial aequorin
T1 sequence (P25116 22-425): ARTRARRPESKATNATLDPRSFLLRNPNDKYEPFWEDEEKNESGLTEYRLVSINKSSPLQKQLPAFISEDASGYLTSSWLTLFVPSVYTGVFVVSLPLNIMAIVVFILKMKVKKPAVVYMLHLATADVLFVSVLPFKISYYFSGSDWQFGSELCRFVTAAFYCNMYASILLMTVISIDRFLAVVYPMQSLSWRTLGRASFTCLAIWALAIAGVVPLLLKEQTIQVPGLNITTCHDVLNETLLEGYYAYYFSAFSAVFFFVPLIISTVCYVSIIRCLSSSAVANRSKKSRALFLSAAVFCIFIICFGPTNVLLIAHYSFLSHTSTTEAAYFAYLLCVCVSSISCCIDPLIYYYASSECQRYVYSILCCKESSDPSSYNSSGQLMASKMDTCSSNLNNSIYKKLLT
Excerpt: 1.a) Cellular Functional In vitro Test
A recombinant cell line is used to identify […] of the human protease activated receptor 1 (PAR1) and to quantify the activity of the substances described herein. The cell is originally derived from a human embryonal kidney cell (HEK293; ATCC: American Type Culture Collection, Manassas, Va. 20108, USA). The test cell line constitutively expresses a modified form of the calcium-sensitive photoprotein aequorin which, after reconstitution with the cofactor coelenterazine, emits light when the free calcium concentration in the inner mitochondrial compartment is increased (Rizzuto R, Simpson A W, Brini M, Pozzan T.; Nature 1992, 358, 325-327). Additionally, the cell stably expresses the endogenous human PAR1 receptor and the endogenous purinergic receptor P2Y2. The resulting PAR1 test cell responds to stimulation of the endogenous PAR1 or P2Y2 receptor with an intracellular release of calcium ions, which can be quantified through resulting aequorin luminescence with a suitable luminometer (Milligan G, Marshall F, Rees S, Trends in Pharmacological Sciences 1996, 17, 235-237).
For testing the substance specificity, its effect after activation of the endogenous PAR1 receptor is compared to the effect after activation of the endogenous purinergic P2Y2 receptor which utilizes the same intracellular signal path.
Test procedure: The cells are plated out two days (48 hours) before the test in culture medium (DMEM F12, supplemented with 10% FCS, 2 mM glutamine, 20 mM HEPES, 1.4 mM pyruvate, 0.1 mg/ml gentamycin, 0.15% Na bicarbonate; BioWhittaker Cat.# BE04-687Q; B-4800 Verviers, Belgium) in 384-well microtitre plates and kept in a cell incubator (96% atmospheric humidity, 5% V/V CO2, 37° C.). On the day of the test, the culture medium is replaced by a tyrode solution (in mM: 140NaCl, 5l KCl, 1MgCl2, 2CaCl2, 20 glucose, 20 HEPES), which additionally contains the cofactor coelenterazine (25 μM) and glutathione (4 mM), and the microtitre plate is then incubated for a further 3-4 hours. The test substances are then pipetted onto the microtitre plate, and 5 minutes after the transfer of the test substances into the wells of the microtitre plate the plate is transferred into the luminometer, a PAR1 agonist concentration which corresponds to the EC50 is added and the resulting light signal is immediately measured in the luminometer. To distinguish an antagonist substance action from a toxic action, the endogenous purinergic receptor is immediately subsequently activated with agonist (ATP, final concentration 10 μM) and the resulting light signal is measured.

[2] = tested on: platelet-rich plasma (platelet aggregation triggered by thrombin receptor agonist TRAP6, SFLLRN); assay: Platelet aggregation in plasma (TRAP6/SFLLRN-induced, Born turbidimetry); format: cell-based; conditions: Homo sapiens; platelet-rich plasma of healthy volunteers; 10 min incubation at 37° C.; light transmission 5 minutes after agonist; concentration at which aggregation is 50% inhibited
Description: 1.c) Platelet Aggregation in Plasma
To determine the platelet aggregation, blood of healthy volunteers of both sexes who had not received any thrombocyte aggregation-influencing medication for the last ten days is used. The blood is drawn into monovettes (Sarstedt, Nümbrecht, Germany) which contain, as anticoagulant, sodium citrate 3.8% (1 part of citrate+9 parts of blood). To obtain platelet-rich plasma, the citrated whole blood is centrifuged at 140 g for 20 min.
For the aggregation measurements, aliquots of the platelet-rich plasma are incubated with increasing concentrations of test substance at 37° C. for 10 min. Aggregation is then triggered by addition of a thrombin receptor agonist (TRAP6, SFLLRN) in an aggregometer and determined at 37° C. using the turbidimetric method according Born (Born, G. V. R., Cross M. J., The Aggregation of Blood Platelets; J. Physiol. 1963, 168, 178-195). The SFLLRN concentration giving maximum aggregation is individually determined for each donor.
To calculate the inhibitory effect, the increase of light transmission (amplitude of the aggregation curve in %) is determined 5 minutes after addition of the agonist in the presence and absence of test substance, and the inhibition is calculated. The concentration at which the aggregation is 50% inhibited is calculated from the inhibition curves.

| SMILES | pIC50 [1] | pIC50 [2] |
| --- | --- | --- |
| CCc1ccc(C2CC(c3nc(Cc4ccccc4Cl)no3)CN(C(=O)N3CCOCC3)C2)cc1 (racemic) [Example 60, 4-({3-[3-(2-Chlorobenzyl)-1,2,4-oxadiazol-5-yl]-5-(4-ethylphenyl)piperidin-1-yl}carbonyl)-morpholine] | 8.00 | 4.71 |
| COCCc1noc(C2CC(c3ccc(C)c(C(F)(F)F)c3)CN(C(=O)N3CCOCC3)C2)n1 (single isomer, unassigned) [Example 459, {3-[3-(2-Methoxyethyl)-1,2,4-oxadiazol-5-yl]-5-[4-methyl-3-(trifluoromethyl)phenyl]piperidin-1-yl}(morpholin-4-yl)methanone] | 7.07 |  |
| CCc1ccc(C2CC(c3nc(CCOC)no3)CN(C(=O)N3CCC(O)CC3)C2)cc1 (single isomer, unassigned) [Example 549, {3-(4-Ethylphenyl)-5-[3-(2-methoxyethyl)-1,2,4-oxadiazol-5-yl]piperidin-1-yl}(4-hydroxy-piperidin-1-yl)methanone] | 7.90 |  |
| O=C(N1CCC(O)C1)N1CC(c2ccc(C(F)(F)F)cc2)CC(c2nc(C3CC3)no2)C1 (stereo not shown) [Example 146, {3-(3-Cyclopropyl-1,2,4-oxadiazol-5-yl)-5-[4-(trifluoromethyl)phenyl]piperidin-1-yl}(3-hydroxy-pyrrolidin-1-yl)methanone] | 8.03 |  |
| COCCc1noc(C2CC(c3ccc(OC(F)(F)F)cc3)CN(C(=O)N3CCC(O)C3)C2)n1 (stereo not shown) [Example 420, (3-Hydroxypyrrolidin-1-yl) {3-[3-(2-methoxyethyl)-1,2,4-oxadiazol-5-yl]-5-[4-(trifluoromethoxy)-phenyl]piperidin-1-yl}methanone] | 7.62 |  |
| COCc1nc(C2CC(c3ccc(C(F)(F)F)cc3)CN(C(=O)N3CCOCC3)C2)no1 (stereo not shown) [Example 465, {3-[5-(Methoxymethyl)-1,2,4-oxadiazol-3-yl]-5-[4-(trifluoromethyl)phenyl]piperidin-1-yl}-(morpholin-4-yl)methanone] | 7.61 |  |

Second part, led by results:

| pIC50 [1] | SMILES | pIC50 [2] |
| --- | --- | --- |
| 7.51 | O=C(N1CCOCC1)N1CC(c2ccc(OC(F)(F)F)cc2)CC(c2nc(-c3ccc(F)cc3F)no2)C1 (racemic) [Example 38, 4-({3-[3-(2,4-Difluorophenyl)-1,2,4-oxadiazol-5-yl]-5-[4-(trifluoromethoxy)phenyl]piperidin-1-yl}carbonyl)morpholine] | 4.03 |
| 8.17 | CCc1ccc(C2CC(c3nc(-c4c(F)cccc4F)no3)CN(C(=O)N3CCOCC3)C2)cc1 (racemic) [Example 39, 4-({3-[3-(2,6-Difluorophenyl)-1,2,4-oxadiazol-5-yl]-5-(4-ethylphenyl)piperidin-1-yl}carbonyl)-morpholine] | 5.25 |
| 8.32 | O=C(N1CCOCC1)N1CC(c2cccc(C(F)(F)F)c2)CC(c2nc(-c3c(F)cccc3F)no2)C1 (stereo not shown) [Example 352] |  |
| 8.56 | O=C(N1CCOCC1)N1CC(c2cccc(C(F)(F)F)c2)CC(c2nc(-c3cc(F)ccc3F)no2)C1 (stereo not shown) [Example 356] |  |

From US8119663B2, “Heteroaryl-substituted piperidines” (Bayer Pharma Aktiengesellschaft, priority 2007, dated 2012)
